In series [1] the test system is HeLa S3 human epithelioid cervical carcinoma cells. Briefly: Cellular uptake of fluorescein-labeled dendrimers quantified by flow cytometry (FACS). The format is cell-based. The conditions noted are these: for delivery to HeLa S3 cells (in words): 250 nM to 50 μM; for Percentage of Cellular Uptake: 4 hours, 37° C., average of two experiments; for saturation of uptake reached with increasing concentration: concentration increased up to 50 μM. Here is the method: HeLa S3, human epithelioid cervical carcinoma cells of approximately 50% confluency were treated with concentrations varying from 250 nM to 50 μM of each of the molecular transporters 10, 11, 12, 13, and 41 at 37° C. The molecular transporters were directly added to the media (Dulbecco's modified eagle medium containing 10% fetal bovine serum and 1× antibiotic-antimycotic), and the delivery to the cells was visualized by microscopy.
Quantification of the uptake of the molecular transporter into the cells was performed by flow cytometry 4 hours after treatment. Adherent cells, grown on 6 well plates, were displaced with trypsin, after which the cells were washed with phosphate-buffered saline (PBS). The final cell pellet was collected by centrifugation and resuspended in PBS to a concentration of approximately 1×10^6 cells/mL. A minimum of 20,000 cell events were counted and analyzed using the FACSCalibur and CellQuest brand software (BD Biosciences, San Jose, Calif.).

The nature of series [2]: Solubility in H2O noted on isolation. The format is physicochemical. The settings on record: isolated salt.
The subject of series [3] is HeLa S3 cells. The series is described as follows: Sulphorhodamine B (SRB) cytotoxicity assay. The settings on record: 4 hour treatment, concentrations up to 50 μM. The class given is cell-based, human. Here is the method: The cells were treated with varying concentrations (250 nM to 50 μM) of compound 12 for 4 hours at 37° C. The cells were fixed with trichloroacetic acid and were then subsequently stained with SRB dye. The cells were washed with water, and the SRB-bound complexes were solubilized in Tris buffer. The absorbance at 572 nm was measured in each sample.

Each structure is given as a SMILES string.

On to `Cl.Cl.Cl.Cl.Cl.Cl.N=C(N)NCCNC(=O)CCOCC(COCCC(=O)NCCNC(=N)N)(COCCC(=O)NCCNC(=N)N)NC(=O)CCNC(=O)c1cc(C(=O)NCCNC(=O)CCNC(=S)Nc2ccc(-c3c4ccc(=O)cc-4oc4cc(O)ccc34)c(C(=O)O)c2)cc(C(=O)NCCC(=O)NC(COCCC(=O)NCCNC(=N)N)(COCCC(=O)NCCNC(=N)N)COCCC(=O)NCCNC(=N)N)c1` (stereo not shown) [Compound 11], for which the “delivery to HeLa S3 cells (in words)” value in series [1] is “excellent delivery”. Also, the “Percentage of Cellular Uptake” value in series [1] (250 nM) is listed as 4.56%; in series [1] (500 nM), 7.52%; in series [1] (1 μM), 11.74%; in series [1] (5 μM) it was 94.54%; in series [1] (10 μM) it was 98.55%; in series [1] (25 μM) it was 99.79%. Besides, the “Percentage of Cellular Uptake” value in series [1] (50 μM) is 99.87%. Further, in series [1], the “saturation of uptake reached with increasing concentration” value is “approximately 100%”.
Take `Cl.Cl.Cl.Cl.Cl.Cl.Cl.Cl.Cl.Cl.Cl.Cl.N=C(N)NCCNC(=O)CCOCC(COCCC(=O)NCCNC(=N)N)(COCCC(=O)NCCNC(=N)N)NC(=O)CCNC(=O)CCOCC(COCCC(=O)NCCC(=O)NC(COCCC(=O)NCCNC(=N)N)(COCCC(=O)NCCNC(=N)N)COCCC(=O)NCCNC(=N)N)NC(=O)CCNC(=O)CCOCC(COCCC(=O)NCCC(=O)NC(COCCC(=O)NCCC(=O)NC(COCCC(=O)NCCNC(=N)N)(COCCC(=O)NCCNC(=N)N)COCCC(=O)NCCNC(=N)N)COCCC(=O)NCCC(=O)NC(COCCC(=O)NCCNC(=N)N)(COCCC(=O)NCCNC(=N)N)COCCC(=O)NCCNC(=N)N)NC(=O)CCNC(=S)Nc1ccc(-c2c3ccc(=O)cc-3oc3cc(O)ccc23)c(C(=O)O)c1` (stereo not shown) [Compound 13]: in series [2], the “solubility in H2O” value is given as “barely soluble in H2O”. Further, the “delivery to HeLa S3 cells (in words)” value in series [1] is recorded as “excellent delivery”. The “Percentage of Cellular Uptake” value is recorded as 3.22% in series [1] (250 nM); 6.59% in series [1] (500 nM); 11.91% in series [1] (1 μM); 90.79% in series [1] (5 μM); 96.77% in series [1] (10 μM); 99.11% in series [1] (25 μM). For the same compound, in series [1] (50 μM), the “Percentage of Cellular Uptake” value worked out at 99.82%. Also, in series [1], the “saturation of uptake reached with increasing concentration” value is on record as “approximately 100%”.
Regarding `Cl.Cl.Cl.Cl.Cl.Cl.Cl.Cl.Cl.N=C(N)NCCNC(=O)CCOCC(COCCC(=O)NCCNC(=N)N)(COCCC(=O)NCCNC(=N)N)NC(=O)CCNC(=O)CCOCC(COCCC(=O)NCCC(=O)NC(COCCC(=O)NCCNC(=N)N)(COCCC(=O)NCCNC(=N)N)COCCC(=O)NCCNC(=N)N)(COCCC(=O)NCCC(=O)NC(COCCC(=O)NCCNC(=N)N)(COCCC(=O)NCCNC(=N)N)COCCC(=O)NCCNC(=N)N)NC(=O)CCNC(=S)Nc1ccc(-c2c3ccc(=O)cc-3oc3cc(O)ccc23)c(C(=O)O)c1` (stereo not shown) [Compound 12], in series [1], the “delivery to HeLa S3 cells (in words)” value was “excellent delivery”. The “Percentage of Cellular Uptake” value in series [1] (250 nM) stood at 9.07%; in series [1] (500 nM), 8.71%; in series [1] (1 μM), 9.17%; in series [1] (5 μM) it was 63.52%; in series [1] (10 μM) it was 91.74%; in series [1] (25 μM), 98.61%. Further, the “Percentage of Cellular Uptake” value in series [1] (50 μM) is given as 99.75%. Moreover, in series [1], the “saturation of uptake reached with increasing concentration” value is listed as “approximately 100%”. Moreover, in series [3], the “cytotoxic effect / cell lysis” value is “no cytotoxic effect and did not cause cell lysis”.
Take `N=C(N)NCCNC(=O)CCCCCNC(=O)CCNC(=S)Nc1ccc(-c2c3ccc(=O)cc-3oc3cc(O)ccc23)c(C(=O)O)c1` [Compound 41, 5-(3-{2-[5-(2-Guanidinoethylcarbamoyl)-pentylcarbamoyl]-ethyl}-thioureido)-2-(6-hydroxy-3-oxo-3H-xanthen-9-yl)-benzoic acid]: the “saturation of uptake reached with increasing concentration” value in series [1] is “approximately 100%”.
The same measure, in the same setting: as for `Cl.Cl.Cl.N=C(N)NCCNC(=O)CCOCC(COCCC(=O)NCCNC(=N)N)(COCCC(=O)NCCNC(=N)N)NC(=O)CCNC(=S)Nc1ccc(-c2c3ccc(=O)cc-3oc3cc(O)ccc23)c(C(=O)O)c1` (stereo not shown) [Compound 10], the entry is “approximately 100%”.

Values taken from patent US7862807B2, “Dendrimers as molecular translocators” (University of California, San Diego, priority 2002, dated 2011).
